Assay results reported in patent publication US20050191628A1, “Antibiotics based upon bacteriophage lysis proteins” (priority 1999, published 2005).

What was measured:
MraY = biological target: T1, MraY (Escherichia coli, UniProt P0A6W3); assay type: biochemical, E. coli; conditions: membranes of ET505 strains; average of 3 experiments ± standard deviation (tunicamycin: average of duplicates)
T1 construct: endogenous in cells; host or cells: E. coli K-12 ET505 (W3110 lysA::Tn10) membranes, carrying pJFlacZK (control) or pEmycZK (E-expressing)
T1 sequence (P0A6W3 1-360): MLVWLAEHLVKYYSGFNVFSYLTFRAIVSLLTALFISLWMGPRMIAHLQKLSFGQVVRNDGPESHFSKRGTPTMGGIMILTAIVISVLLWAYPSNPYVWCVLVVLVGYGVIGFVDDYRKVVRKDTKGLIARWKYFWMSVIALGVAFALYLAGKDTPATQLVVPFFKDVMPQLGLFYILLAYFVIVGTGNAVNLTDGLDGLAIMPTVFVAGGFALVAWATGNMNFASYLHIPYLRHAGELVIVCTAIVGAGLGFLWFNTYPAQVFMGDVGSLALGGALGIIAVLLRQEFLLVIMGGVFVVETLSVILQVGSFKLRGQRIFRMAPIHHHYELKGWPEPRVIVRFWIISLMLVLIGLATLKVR

Rfe = biological target: T2, Rfe (Escherichia coli, UniProt P0AC78); assay type: biochemical, E. coli; conditions: membranes of ET505 strains; average of 3 experiments ± standard deviation
T2 construct: endogenous in cells; host or cells: E. coli K-12 ET505 (W3110 lysA::Tn10) membranes, carrying pJFlacZK (control) or pEmycZK (E-expressing)
T2 sequence (P0AC78 1-367): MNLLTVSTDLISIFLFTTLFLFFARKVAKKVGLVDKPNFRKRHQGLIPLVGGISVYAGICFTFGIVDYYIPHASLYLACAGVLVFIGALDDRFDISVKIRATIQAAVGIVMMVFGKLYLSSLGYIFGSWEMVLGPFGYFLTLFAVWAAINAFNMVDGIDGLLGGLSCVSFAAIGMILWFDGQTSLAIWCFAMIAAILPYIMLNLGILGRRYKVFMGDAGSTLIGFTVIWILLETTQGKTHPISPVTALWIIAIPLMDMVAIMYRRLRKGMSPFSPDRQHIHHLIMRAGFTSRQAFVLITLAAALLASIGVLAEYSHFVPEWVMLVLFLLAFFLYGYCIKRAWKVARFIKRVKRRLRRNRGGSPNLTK

Substance: tunicamycin
- cpm of [3H]-UMP converted to [3H]-UDP-MurNAc-pentapeptide in membrane preparations by MraY (MraY): 2000 cpm
- cpm of [3H]-UMP converted to [3H]-UDP-GlcNAc in membrane preparations by Rfe (Rfe): 3400 ± 500 cpm
